Assay results: patent US6737383B1, “Herbicidal oxadiazolidines” (priority 1999, dated 2004)

Legend:
[1] = tested on: purple nutsedge; test: Test B pre/postemergence purple nutsedge; type: in vivo, Cyperus rotundus
How it was run: (§1)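 Herbicidal effect was estimated by eye on a ten-point control scale after plants spent twelve to sixteen days in a greenhouse following soil or foliar treatment. Foliar sprays targeted plants at one to four leaves; all doses were formulated in a non-phytotoxic solvent with surfactant.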

[2] = tested on: corn; test: Test B pre/postemergence corn; type: in vivo, Zea mays
How it was run: as §1

[3] = tested on: crabgrass; test: Test B pre/postemergence crabgrass; type: in vivo, Digitaria sanguinalis
How it was run: as §1

[4] = tested on: surinam grass; test: Test B pre/postemergence surinam grass; type: in vivo, Brachiaria decumbens
How it was run: as §1

[5] = tested on: smallflower flatsedge; test: Test B flood test smallflower flatsedge; type: in vivo, Cyperus difformis
How it was run: (§2)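 Plants were grown to the 2-leaf stage before treatment with test chemical, then held in a greenhouse for twelve to sixteen days. Injury was visually rated against untreated controls on a 0–10 scale, where 0 is no effect and 10 is complete control.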

[6] = tested on: rape; test: Test B pre/postemergence rape; type: in vivo, Brassica napus
How it was run: as §1

[7] = tested on: wheat; test: Test B pre/postemergence wheat; type: in vivo, Triticum aestivum
How it was run: as §1

[8] = tested on: bedstraw; test: Test B pre/postemergence bedstraw; type: in vivo, Galium aparine; settings: Preemergence; for Bedstraw plant response rating: scale 0 to 10, 0 is no effect, 10 is complete control
How it was run: as §1

[9] = tested on: bamyardgrass; test: Test B flood test barnyardgrass; type: in vivo, Echinochloa crus-galli
How it was run: as §2

[10] = tested on: soybean; test: Test B pre/postemergence soybean; type: in vivo, Glycine max
How it was run: as §1

[11] = tested on: morningglory; test: Test B pre/postemergence morningglory; type: in vivo, Ipomoea hederacea
How it was run: as §1

[12] = tested on: rice; test: Test B flood test rice; type: in vivo, Oryza sativa
How it was run: as §2

[13] = tested on: giant foxtail; test: Test B pre/postemergence giant foxtail; type: in vivo, Setaria faberii
How it was run: as §1

[14] = tested on: pigweed; test: Test B pre/postemergence pigweed; type: in vivo, Amaranthus retroflexus
How it was run: as §1

[15] = tested on: sugar beet; test: Test B pre/postemergence sugar beet; type: in vivo, Beta vulgaris
How it was run: as §1

[16] = tested on: velvetleaf; test: Test B pre/postemergence velvetleaf; type: in vivo, Abutilon theophrasti
How it was run: as §1

[17] = tested on: duck salad; test: Test B flood test duck salad; type: in vivo, Heteranthera limosa
How it was run: as §2

[18] = tested on: wild oat; test: Test B pre/postemergence wild oat; type: in vivo, Avena fatua
How it was run: as §1

[19] = tested on: blackgrass; test: Test B pre/postemergence blackgrass; type: in vivo, Alopecurus myosuroides
How it was run: as §1

[20] = tested on: cocklebur; test: Test B pre/postemergence cocklebur; type: in vivo, Xanthium strumarium
How it was run: as §1

[21] = Postemergence, Rate 62 g/ha, scale of 0 to 10, 0 is no effect, 10 is complete control
[22] = Postemergence, Rate 125 g/ha, scale 0 to 10, 0 is no effect, 10 is complete control
[23] = Preemergence, Rate 62 g/ha, scale of 0 to 10 where 0 is no effect and 10 is complete control
[24] = Preemergence, Rate 125 g/ha, scale 0 to 10, 0 is no effect, 10 is complete control
[25] = Preemergence, Rate 500 g/ha, scale of 0 to 10 where 0 is no effect and 10 is complete control
[26] = Postemergence, Rate 250 g/ha, scale 0 to 10
[27] = Postemergence, Rate 500 g/ha, scale 0 to 10, 0 is no effect, 10 is complete control
[28] = Preemergence, Rate 250 g/ha, scale 0 to 10, 0 is no effect, 10 is complete control
[29] = Rate 62 g/ha, flood test species, Pre-emergence, visual evaluation after twelve to sixteen days
[30] = Rate 125 g/ha, under heading Pre-emergence, flood test species, visual evaluation after twelve to sixteen days
[31] = Rate 250 g/ha, Pre-emergence (flood test species), scale 0 to 10, 0 is no effect, 10 is complete control
[32] = Rate 500 g/ha, Pre-emergence section of Table B, 0 to 10 scale (0 no effect, 10 complete control)

CC(C)N(C(=O)n1oc(=O)n(CC2CC2)c1=O)c1ccc(F)cc1F [Compound 509]
Nutsedge plant response rating [1, 21]: 0 | Nutsedge plant response rating [1, 22]: 0 | Plant response rating, Nutsedge [1, 23]: 0 | Nutsedge plant response rating [1, 24]: 0 | Nutsedge plant response rating [1, 25]: 0 | Corn plant response rating [2, 21]: 0 | Corn plant response rating [2, 22]: 0 | Corn plant response rating [2, 26]: 0 | Plant response rating, Corn [2, 27]: 1 | Plant response rating, Corn [2, 23]: 0 | Corn plant response rating [2, 24]: 0 | Corn plant response rating [2, 25]: 6 | Crabgrass plant response rating [3, 21]: 3 | Crabgrass plant response rating [3, 22]: 9 | Crabgrass plant response rating [3, 26]: 9 | Plant response rating, Crabgrass [3, 27]: 9 | Plant response rating, Crabgrass [3, 23]: 3 | Crabgrass plant response rating [3, 24]: 7 | Crabgrass plant response rating [3, 25]: 10 | B. signalgrass plant response rating [4, 21]: 0 | B. signalgrass plant response rating [4, 22]: 0 | B. signalgrass plant response rating ([4]; Postemergence, Rate 250 g/ha, scale 0 to 10, 0 no effect, 10 complete control): 2 | Plant response rating, B. signalgrass [4, 27]: 7 | Plant response rating, B. signalgrass [4, 23]: 2 | B. signalgrass plant response rating [4, 24]: 3 | B. signalgrass plant response rating [4, 28]: 8 | B. signalgrass plant response rating ([4]; Preemergence, Rate 500 g/ha, scale 0 to 10, 0 is no effect, 10 is complete control): 9 | Plant response rating, S. Flatsedge (0 to 10 scale, 0 is no effect, 10 is complete control) [5, 29]: 0 | S. Flatsedge plant response rating (0 to 10 scale, 0 is no effect, 10 is complete control) [5, 30]: 0 | S. Flatsedge plant response rating [5, 31]: 0 | S. Flatsedge plant response rating [5, 32]: 0 | Rape plant response rating [6, 21]: 0 | Rape plant response rating [6, 22]: 0 | Plant response rating, Rape [6, 27]: 4 | Plant response rating, Rape [6, 23]: 0 | Rape plant response rating [6, 24]: 0 | Rape plant response rating [6, 25]: 10 | Wheat plant response rating [7, 21]: 0 | Wheat plant response rating [7, 22]: 0 | Plant response rating, Wheat [7, 27]: 2 | Plant response rating, Wheat [7, 23]: 0 | Wheat plant response rating [7, 24]: 0 | Wheat plant response rating [7, 25]: 7 | Plant response rating, Bedstraw ([8]; Rate 62 g/ha, scale of 0 to 10 where 0 is no effect and 10 is complete control): 0 | Bedstraw plant response rating ([8]; Rate 125 g/ha): 0 | Bedstraw plant response rating ([8]; Rate 250 g/ha): 10 | Bedstraw plant response rating ([8]; Rate 500 g/ha): 9 | Plant response rating, Barnyardgrass (0 to 10 scale, 0 is no effect, 10 is complete control) [9, 29]: 0 | Barnyardgrass plant response rating (0 to 10 scale, 0 is no effect, 10 is complete control) [9, 30]: 0 | Barnyardgrass plant response rating [9, 31]: 0 | Barnyardgrass plant response rating [9, 32]: 0 | Soybean plant response rating [10, 21]: 1 | Soybean plant response rating [10, 22]: 3 | Plant response rating, Soybean [10, 27]: 5 | Plant response rating, Soybean [10, 23]: 0 | Soybean plant response rating [10, 24]: 0 | Plant response rating, Morningglory [11, 27]: 5 | Plant response rating, Morningglory [11, 23]: 0 | Morningglory plant response rating [11, 24]: 0 | Morningglory plant response rating [11, 25]: 3 | Plant response rating, Rice (0 to 10 scale, 0 is no effect, 10 is complete control) [12, 29]: 0 | Rice plant response rating (0 to 10 scale, 0 is no effect, 10 is complete control) [12, 30]: 0 | Rice plant response rating [12, 31]: 0 | Rice plant response rating [12, 32]: 0 | Giant foxtail plant response rating [13, 21]: 3 | Giant foxtail plant response rating [13, 22]: 7 | Plant response rating, Giant foxtail [13, 27]: 8 | Plant response rating, Giant foxtail [13, 23]: 9 | Giant foxtail plant response rating [13, 24]: 9 | Giant foxtail plant response rating [13, 25]: 10 | Redroot pigweed plant response rating [14, 21]: 0 | Redroot pigweed plant response rating [14, 22]: 0 | Plant response rating, Redroot pigweed [14, 27]: 5 | Plant response rating, Redroot pigweed [14, 23]: 0 | Redroot pigweed plant response rating [14, 24]: 0 | Redroot pigweed plant response rating [14, 25]: 10 | Sugarbeets plant response rating [15, 21]: 0 | Sugarbeets plant response rating [15, 22]: 0 | Plant response rating, Sugarbeets [15, 27]: 7 | Plant response rating, Sugarbeets [15, 23]: 0 | Sugarbeets plant response rating [15, 24]: 4 | Sugarbeets plant response rating [15, 25]: 7 | Velvetleaf plant response rating [16, 21]: 2 | Velvetleaf plant response rating [16, 22]: 4 | Plant response rating, Velvetleaf [16, 27]: 7 | Plant response rating, Velvetleaf [16, 23]: 3 | Velvetleaf plant response rating [16, 24]: 6 | Velvetleaf plant response rating [16, 25]: 8 | Plant response rating, Ducksalad (0 to 10 scale, 0 is no effect, 10 is complete control) [17, 29]: 0 | Ducksalad plant response rating (0 to 10 scale, 0 is no effect, 10 is complete control) [17, 30]: 0 | Ducksalad plant response rating [17, 31]: 0 | Ducksalad plant response rating [17, 32]: 0 | Wild oats plant response rating [18, 21]: 0 | Wild oats plant response rating [18, 22]: 0 | Plant response rating, Wild oats [18, 27]: 8 | Plant response rating, Wild oats [18, 23]: 0 | Wild oats plant response rating [18, 24]: 2 | Wild oats plant response rating [18, 25]: 9 | Blackgrass plant response rating [19, 21]: 2 | Blackgrass plant response rating [19, 22]: 5 | Blackgrass plant response rating [19, 26]: 6 | Plant response rating, Blackgrass [19, 27]: 9 | Plant response rating, Blackgrass [19, 23]: 5 | Blackgrass plant response rating [19, 24]: 7 | Blackgrass plant response rating [19, 28]: 8 | Blackgrass plant response rating [19, 25]: 10 | Cocklebur plant response rating [20, 21]: 0 | Cocklebur plant response rating [20, 22]: 0 | Cocklebur plant response rating [20, 26]: 0 | Plant response rating, Cocklebur [20, 27]: 4 | Plant response rating, Cocklebur [20, 23]: 0 | Cocklebur plant response rating [20, 24]: 0 | Cocklebur plant response rating [20, 28]: 0 | Cocklebur plant response rating [20, 25]: 5
